Measured values reported in patent US20060134126A1, “Peptide constructs for treating disease” (priority 2002, published 2006).
Ends that are not written are not given here.

Columns and labels:
[1] = test system: plasmodium yoelii sporozoites; experiment: Protection from sporozoite challenge, TCBL derG in inbred mice (Tables 5, 6); type: in vivo
Description: (§1) Next using another antigen with B and T cell activity two inbred strains of mice, (A/J and Balb/c) were immunized twice at three week intervals with the L.E.A.P.S.™ constructs (J-GF/SF or der-SF/GF) or with the subunits (SF/GF, J and derG) used to make heteroconjugated peptides, and were challenged with 100 Plasmodium yoelii sporozoites 2 weeks after the second immunization and protection efficacy evaluated as before. Four days before challenge, serum was collected from individual animals, pooled and analyzed immediately for antibody to SF/GF peptide sera collected from immunized and protected mice 15 days post challenge were pooled and used for IFN-γ determination by ELISA procedures.
Another experiment similar to the first except only a single strain of mice (A/J) was used with decreasing doses of the derG in order to evaluate potency as shown in Table 6.

SF/GF peptide = experiment: Serum antibody ELISA to SF/GF peptide; type: in vivo, mouse
Description: as §1

IFN-γ = experiment: Serum IFN-γ by ELISA; type: in vivo, mouse; conditions: A/J mice, sera pooled 15 days post challenge
Description: as §1

[2] = test system: P. yoelii (non lethal strain 17XNL) sporozoites; experiment: Comparison of lots and forms of derG in malaria system (Table 9); type: in vivo; conditions: A/J mice, 5 μg two times, TiterMax
Method: Four (4) groups of 10 mice (4-to 6-wk-old female A/J) were subcutaneously two times at 3-week intervals with 5 μg of the derG peptide, emulsified in TiterMax™ at 1:1 ratio as previously described. Two other groups of mice treated with TiterMax™ alone and untreated mice served as controls. Fourteen days after the second treatment mice were intravenously challenged with 100 P. yoelii (non lethal strain 17XNL ) sporozoites. Parasitemia was determined by microscopic examination of 200 oil-immersion fields of Geimsa stained-thin blood smears obtained from the mice at 5, 7, and 14 days post challenge.
In particular, the derG(19) peptide contains an additional glycine amino acid inserted between the A 140 and V 142 residues. The rationale for the insertion was that these two residues are involved in the CD4 interaction as disclosed in Konig et al. “MHC class II interaction with CD4 medicated by a region analogous to the MHC class I binding site for CD8”, Nature 1992; 356:796-798.

B16 melanoma = experiment: Allogeneic murine B16 melanoma protection model; type: in vivo, mouse; conditions: for Protection: in combination with allogeneic cells
Method: In particular, C57/b16 (H2^b) mice are vaccinated with the allogeneic melanoma K1735 (H2^k) at least twice on weekly intervals and then challenged with syngeneic B16 (H2^b) tumors. […] This is clear evidence of cross-priming and the existence of shared antigens.
Peptide constructs were prepared using as T cell binding ligand, either derG (SEQ ID NO. 7), Peptide G (SEQ ID NO. 5). The peptides are synthesized using the FMOC procedure and a double coupling protocol for the first 8 residues. Usually the peptide is prepared with the carboxyl terminus as an amide form. All of the peptides are purified using prepatative HPLC, and analyzed by an analytical HPLC, amino acid analysis and mass spectrophotometer. The peptides are greater than 95%, usually greater than 98%, pure by HPLC criteria. The dry peptides are stored in vials with desiccant at −8° C. • 1) Eight groups of seven mice were injected with 200 μl of the vaccine as shown in FIG. 1. • 2) This was repeated after 7 days. • 3) A further 7 days later, mice were challenged with 200 μl saline containing 5×10^4 live B16 on the contralateral side to vaccination. • 4) Mice were sacrificed when tumor size exceeded 15 mm in either axis.
In order more precisely model the use of clinical allogeneic vaccines, a frozen vaccine was used in the mouse model wherein K-1735 cells were thawed just prior to use. Efficacy in the protection model ranged from 40-10%. Additionally, the antigen TRP2 (a.a. 180-188), found in B16 melanoma, was engineered into L.E.A.P.S.™ constructs and was tested in various permutations in the allogeneic murine melanoma model. Optimization may be necessary.

[3] = test system: plasmodium yoelii sporozoites; experiment: Protection from sporozoite challenge in different mouse strains (Table 7); type: in vivo; conditions: 25 μg, 2 times at 3 week intervals, TiterMax
Method: Since derG alone was able to protect A/J mice against Plasmodium yoelii sporozoites challenge, in the absence of malaria antigen, a similar experiment was conducted to evaluate the protective efficacy of derG in three other mouse strains: BALB/c (H2d), C3H/HeJ (H2K) and hybrid CAF1 (A/J×BALB/c).
Groups of 10 mice were pre-treated 2 times at 3 week intervals with 25 μg of derG in TiterMax™ adjuvant and challenged with 100 Plasmodium yoelii sporozoites. Protective efficacy was evaluated as described above.

HSV-1 = experiment: Scarification-zosteriform spread model of HSV infection; type: in vivo; conditions: A/J mice
Method: Groups of 4-to 6-wk old female A/J mice were subcutaneously inoculated once with 25 μg of the derG peptide emulsified in ISA51 adjuvant at a 1:1 ratio before challenge unless otherwise specified. Untreated mice and mice treated with adjuvant served as additional controls. The mice were challenged as specified in methods well known to those of ordinary skill in the art and as exemplified by Goel et al. (“The Ability of an HSV Strain to Initiate Zosteriform Spread Correlates with its Neuroinvasive Disease Potential”, Arch Virol 147:763-773 (2002)) and Goel et al., (“A Modification Of The Epidermal Scarification Model Of Herpes Simplex Virus Infection To Achieve A Reproducible And Uniform Progression Of Disease”, J Virol Meth 106;153-8 (2002)).
In particular, hair is removed by shaving and then Nair® is applied. Twenty-fours later the depilated back of a mouse is scratched or abraded to expose the susceptible epidermal layer and virus rubbed in. To provide more detail, 10 μl of a virus suspension containing 6×10^4 plaque forming-units was pipetted onto a 0.5 cm square of skin on mouse dorsal surface, which was previously abraded using sand paper glued on a pencil eraser. In untreated animals, the primary lesion developed at the inoculation site within 3 days and spread to the associated root, followed by anterograde transport and formation of secondary lesions at sites along the dermatome of the nerves within 5 days. In severe cases, animals died within 8 days post viral challenge. Disease progression and survival were monitored for at least 10 days. […] The progression and the severity of the lesions was scored from 0 to 7 (death). This model allows for discrimination of the disease progression (local site, neuronal spread, extent of lesion at the dermatome, death) at which the immune system blocks viral progression. In some experiments modifications in the timing, route of administration and mouse strain were evaluated for efficacy of CEL-1000.

[4] = test system: plasmodium yoelii sporozoites; experiment: Malaria protection assay, G/W peptides (Table 4); type: in vivo; conditions: Experiment 2, outbred CD-1 mice; 25 μg twice; 200 sporozoites
Method: In particular, mice were immunized twice at three week intervals with 25 μg of the subunits (W or G) used to make the L.E.A.P.S.™ construct (GW), and were challenged with 200 plasmodium yoelii sporozoites 2 weeks after the second immunization. Protective efficacy was evaluated by thin blood smears every other day starting 4 days after the challenge. Mice were considered protected if no blood stage parasites were detectable by 14 days after challenge.

[5] = A/J mice, dose 5 μg, serum pool 4 days before challenge
[6] = A/J mice, dose 25 μg, serum pool 4 days before challenge
[7] = Balb/c mice, dose 25 μg, Table 5
[8] = A/J mice, dose 1.25 μg, Table 6

Substance | Protection (%) ([1]; A/J mice, dose 5 μg, Table 5) | Protection Protected/Tested ([1]; A/J mice, dose 5 μg, Table 5) | Protection (%) ([1]; A/J mice, dose 5 μg, Table 6) | Protection Protected/Tested ([1]; A/J mice, dose 5 μg, Table 6) | Protection (%) ([1]; A/J mice, dose 10 μg, Table 6) | Protection Protected/Tested ([1]; A/J mice, dose 10 μg, Table 6) | Protection (%) ([1]; A/J mice, dose 25 μg, Table 5) | Protection Protected/Tested ([1]; A/J mice, dose 25 μg, Table 5) | Antibody ELISA A490* (SF/GF peptide; [5]) | Antibody ELISA A490* (SF/GF peptide; [6]) | IFN-γ serum (IFN-γ; dose 5 μg) | IFN-γ serum (IFN-γ; dose 25 μg) | Protection (%) [1, 7] | Protection Protected/Tested [1, 7] | Antibody ELISA A490* (SF/GF peptide; Balb/c mice, dose 25 μg) | also measured
SFPMNEESPLGFSPEEMEAVASKFR [GF/SF] | (30%) | 3/10 | (10%) | 1/10 | (50%) | 5/10 | (100%) | 10/10 | 8,443 | 19,970 | 10,000 pg/mL | 12,500 pg/mL |  |  |  | 
DLLKNGERIEKVEGGG [J, short fragment from β2-microglobulin (a.a. 38-50)] | (10%) | 1/10 |  |  | (10%) | 1/10 | (10%) | 1/10 | 1 | 2 |  |  | (0%) | 0/10 | 2 | 
DGQEEKAGGVVSTGLIGGGamide (DGQEEKAGGVVSTGLIGGG-NH2) [derG(19), derG with an additional glycine inserted between the A 140 and V 142 residues] |  |  |  |  |  |  |  |  |  |  |  |  |  |  |  | % Protected ([2]; Lot 1): 40%; Protected/Total ([2]; Lot 1): 4/10; % Protected ([2]; Lot 2): 30%; Protected/Total ([2]; Lot 2): 3/10; % Protected ([2]; Lot 3): 50%; Protected/Total ([2]; Lot 3): 5/10
DGQEEKAGVVSTGLIGGGSFPMNEESPLGFSPEEMEAVASKFR [derG-GF/SF] | (80%) | 8/10 | (10%) | 1/10 |  |  | (100%) | 10/10 | 1,933 | 10,694 | 7,000 pg/mL | 6,000 pg/mL | (0%) | 0/10 | 17,019 | 
DGQEEKAGVVSTGLIGGGamide (DGQEEKAGVVSTGLIGGG-NH2) [derG, modified fragment from MHC II β-chain (a.a.135-149)] | (100%) | 10/10 | (100%) | 10/10 |  |  | (100%) | 10/10 | 2 | 2 | 40,000 pg/mL | 18,000 pg/mL | (0%) | 0/10 | 4 | Protection (B16 melanoma; first value named of two experiments): 30%; Protection (B16 melanoma; second value named of two experiments): 40%; Protection (%) [1, 8]: (60%); Protection Protected/Tested [1, 8]: 6/10; Protection (%) ([1]; A/J mice, dose 2.5 μg, Table 6): (80%); Protection Protected/Tested ([1]; A/J mice, dose 2.5 μg, Table 6): 9/10; Protection ([3]; A/J mice): 80; Protection ([3]; BALB/c mice): 0; Protection ([3]; C3H mice): 40; Protection ([3]; CAF1 hybrid mice): 40; protection from lethal HSV-1 challenge (HSV-1): protects; Protection (HSV-1; intramuscularly 2 weeks prior to challenge, without adjuvant, in aqueous solution): 100%; onset of symptoms, morbidity and mortality (HSV-1; single dose of 25 μg, timing of administration): delay in onset of symptoms; % Protected ([2]; form 18): 90%; Protected/Total ([2]; form 18): 9/10
DLLKNGERIEKVEGGG SFPMNEESPLGFSPEEMEAVASKFR [J-GF/SF] | (10%) | 1/10 |  |  | (56%) | 5/9 | (100%) | 10/10 | 1,103 | 6,121 | 0 pg/mL | 4,000 pg/mL | (0%) | 0/10 | 11,454 | 
NGQEEKAGVVSTGLIGGGamide (NGQEEKAGVVSTGLIGGG-NH2) [G + TM] |  |  |  |  |  |  |  |  |  |  |  |  |  |  |  | activity compared with derG (B16 melanoma; differences from derG): much less active; # Protected/# tested [4]: 6/16; % protection [4]: 38%
